Source: patent publication US20230332232A1, “COMPOSITIONS AND METHODS FOR DIAGNOSING AND TREATING A DYSTONIA” (Duke University, priority 2020, published 2023)

Tested on: DYT1 knockin (Tor1a^delGAG/+) murine embryonic fibroblasts (MEFs)
Assay: microRNA-seq of EVs from DYT1 MEFs treated with drug, compared with non-treated DYT1 MEFs
Type: cell-based, mouse
Conditions: for Sal Direction Opposite ISRIB?: EVs of DYT1 (Het) MEFs
Protocol: In addition to proteomic analysis, total RNA-seq and microRNA-seq was performed on RNA isolated in parallel from the EV samples of Cohort 2. As with the proteomic analysis, one biological replicate was prepared from 3 distinct biological clonal cell lines for each genotype. Here, EVs were isolated from conditioned cell culture media by 18 hour ultracentrifugation at 100,000 g. RNA was extracted using the Qiagen miRNeasy Micro Kit (Cat. No. 217084) according to the manufacturer's protocol. Two RNA fractions were extracted from each sample, one enriched in coding and non-coding RNA species>200 nt (“Total RNA” fraction) and one enriched for small RNAs<200 nt (“miRNA” fraction). RNA samples were then submitted to the Duke Sequencing and Genomic Technologies shared resource for further quality control and sequencing. Samples were assessed for concentration and integrity by Qubit and Fragment Analyzer. The miRNA fractions were 4.16 ng/μL-47.57 ng/μL and total RNA fractions were 3.8 ng/μL-43.6 ng/μL. The small RNA library was prepared using the QIAseq miRNA Library Kit (Cat No./ID: 331505) and sequenced on the Illumina NextSeq 500 High-Output platform with 75 bp single-reads. The total RNA library was prepared using the Illumina TruSeq Stranded Total RNA-seq Kit with Ribozero Gold ribosomal RNA reduction and sequenced on the Illumina NovaSeq 6000 S1 platform with 100 bp paired-end reads. Sequencer lane pooling and read depth are attached in the Excel data summary (See “RNA QC” Tab). Data processing and analysis were performed in collaboration with the Duke Genomic Analysis and Bioinformatics shared resource. RNA-seq data was processed using the TrimGalore toolkit (http://www.bioinformatics.babraham.ac.uk/projects/trim_galore), which employs Cutadapt(Martin M. (2011) EMBnet.journal. 17(1):10-12) to trim low quality bases and Illumina sequencing adapters from the 3' end of the reads. Only reads that were 20 nt or longer after trimming were kept for further analysis. Reads were mapped to the mouse genome and transcriptome ([…], et al. (2012) Nucleic Acids Res. 40(Database issue):[…]-97) using the STAR RNA-seq alignment tool (Dobin A, et al. (2013). Bioinformatics. 29(1):15-21). If the reads mapped to a single genomic location, then they were kept for subsequent analysis. Gene counts were compiled using the HTSeq tool (http://www-huber.embl.de/users/anders/HTSeq/). Only genes that had at least 10 reads in any given library were used in subsequent analysis. Normalization and differential expression was carried out using the DESeq26 Bioconductor (Huber W, et al. (2015) Nat Methods. 12(2):115-121) package with the R statistical programming environment (www.r-project.org). […] 694 miRNAs were initially examined with respect to QC, genotype, RTV effects, and ISRIB effects. This subset was the “Full miRNA” subset. FIG. 9A and FIG. 9B show the RTV effect on EV composition in DYT1 cells compared to WT cells for 279 miRNAs, respectively. […] Beginning with the 694 miRNAs in the “Full miRNA” subset, more than 60 molecules were detected in either WT cells or DYT1 cells (WT or Het UMI>60). […] The candidate miRNAs were ranked by the sum of genotype-dependent absolute Z-scores and RTV-induced absolute Z-scores (Abs Z Score Sum (Geno+RTV)). This subset was the “miRNA-Ritonavir Therapeutic Efficacy” subset and contained 201 miRNAs.

[1] = SAL-treated vs non-treated DYT1 (Het) MEF EVs

O=C(/C=C/c1ccccc1)NC(NC(=S)Nc1cccc2cccnc12)C(Cl)(Cl)Cl (centres unmarked) [SAL, Salubrinal]
mmu-miR-147-5p: SALvHet Z Score [1]: −0.16
mmu-miR-181a-1-3p: SALvHet Z Score [1]: −0.12
mmu-miR-181a-1-3p: Sal Direction Opposite ISRIB? [1]: yes
mmu-miR-331-5p: SALvHet Z Score [1]: 0.66
mmu-miR-668-3p: SALvHet Z Score [1]: 0.34
mmu-miR-1930-5p: SALvHet Z Score [1]: −1.60
mmu-miR-1943-5p: SALvHet Z Score [1]: −0.08
mmu-miR-1955-5p: SALvHet Z Score [1]: 1.06
mmu-miR-3072-5p: SALvHet Z Score [1]: 0.00
mmu-miR-3076-3p: SALvHet Z Score [1]: 0.00
mmu-miR-3088-3p: SALvHet Z Score [1]: −1.34
mmu-miR-6936-3p: SALvHet Z Score [1]: −0.71
mmu-miR-6936-3p: Sal Direction Opposite ISRIB? [1]: yes
mmu-miR-7224-3p: SALvHet Z Score [1]: 0.30
mmu-miR-7224-3p: Sal Direction Opposite ISRIB? [1]: yes
mmu-miR-467d-3p: SALvHet Z Score [1]: −0.01
SALvHet Z Score (mmu-let-7a-1-3p): 0.28
SALvHet Z Score (mmu-let-7c-2-3p): 0.28
SALvHet Z Score (mmu-let-7g-5p): −0.16
SALvHet Z Score (mmu-let-7i-3p): 0.35
Sal Direction Opposite ISRIB? (mmu-miR-30e-5p): yes
SALvHet Z Score (mmu-miR-30e-3p): −0.06
SALvHet Z Score (mmu-miR-15a-5p): 0.17
SALvHet Z Score (mmu-miR-16-5p): −0.01
SALvHet Z Score (mmu-miR-17-3p): 0.10
Sal Direction Opposite ISRIB? (mmu-miR-19b-3p): yes
SALvHet Z Score (mmu-miR-22-3p): 0.17
Sal Direction Opposite ISRIB? (mmu-miR-22-3p): yes
SALvHet Z Score (mmu-miR-23a-3p): 0.05
SALvHet Z Score (mmu-miR-25-3p): −0.04
Sal Direction Opposite ISRIB? (mmu-miR-26b-Sp): yes
SALvHet Z Score (mmu-miR-29b-3p): 0.38
SALvHet Z Score (mmu-miR-29c-3p): 0.40
SALvHet Z Score (mmu-miR-30a-5p): −0.09
SALvHet Z Score (mmu-miR-30b-5p): 0.15
SALvHet Z Score (mmu-miR-30c-5p (1st line so named)): 0.42
SALvHet Z Score (mmu-miR-30c-5p (2nd line so named)): 0.07
Sal Direction Opposite ISRIB? (mmu-miR-30c-5p): yes
SALvHet Z Score (mmu-miR-31-3p): −0.03
SALvHet Z Score (mmu-miR-31-5p): −0.14
SALvHet Z Score (mmu-miR-32-5p): 0.26
SALvHet Z Score (mmu-miR-33-5p): 0.26
SALvHet Z Score (mmu-miR-34a-5p): −0.03
SALvHet Z Score (mmu-miR-34b-5p): 0.38
SALvHet Z Score (mmu-miR-34c-3p): −0.37
SALvHet Z Score (mmu-miR-34c-5p): 0.07
Sal Direction Opposite ISRIB? (mmu-miR-34c-5p): yes
SALvHet Z Score (mmu-miR-96-5p): 0.13
Sal Direction Opposite ISRIB? (mmu-miR-96-5p): yes
SALvHet Z Score (mmu-miR-98-5p): −0.22
SALvHet Z Score (mmu-miR-99a-5p): −0.17
SALvHet Z Score (mmu-miR-101b-3p): 0.64
SALvHet Z Score (mmu-miR-106b-3p): −0.23
SALvHet Z Score (mmu-miR-106b-5p): 0.04
SALvHet Z Score (mmu-miR-124-3p): −0.72
SALvHet Z Score (mmu-miR-125b-1-3p): −0.41
SALvHet Z Score (mmu-miR-130b-3p): 0.32
Sal Direction Opposite ISRIB? (mmu-miR-130b-3p): yes
Sal Direction Opposite ISRIB? (mmu-miR-135a-5p): yes
SALvHet Z Score (mmu-miR-136-3p): 0.08
SALvHet Z Score (mmu-miR-140-3p): 0.50
Sal Direction Opposite ISRIB? (mmu-miR-140-3p): yes
SALvHet Z Score (mmu-miR-146a-5p): 0.02
SALvHet Z Score (mmu-miR-148a-3p): −0.02
SALvHet Z Score (mmu-miR-148b-3p): −0.07
SALvHet Z Score (mmu-miR-149-5p): 0.03
SALvHet Z Score (mmu-miR-151-5p): 0.12
SALvHet Z Score (mmu-miR-152-3p): −0.02
SALvHet Z Score (mmu-miR-181a-5p): −0.23
SALvHet Z Score (mmu-miR-181b-5p): −0.32
SALvHet Z Score (mmu-miR-181c-5p): 0.26
SALvHet Z Score (mmu-miR-182-5p): 0.01
Sal Direction Opposite ISRIB? (mmu-miR-182-5p): yes
SALvHet Z Score (mmu-miR-183-5p): −0.06
SALvHet Z Score (mmu-miR-185-5p): 0.15
SALvHet Z Score (mmu-miR-186-5p): 0.00
SALvHet Z Score (mmu-miR-187-3p): 0.30
Sal Direction Opposite ISRIB? (mmu-miR-187-3p): yes
SALvHet Z Score (mmu-miR-188-5p): −0.05
SALvHet Z Score (mmu-miR-190b-5p): 0.15
SALvHet Z Score (mmu-miR-191-5p): 0.04
SALvHet Z Score (mmu-miR-192-5p): 0.09
Sal Direction Opposite ISRIB? (mmu-miR-192-5p): yes
SALvHet Z Score (mmu-miR-194-5p): 0.18
SALvHet Z Score (mmu-miR-199a-3p): −0.10
SALvHet Z Score (mmu-miR-199b-3p): −0.10
SALvHet Z Score (mmu-miR-206-3p): −0.27
SALvHet Z Score (mmu-miR-214-5p): 0.04
SALvHet Z Score (mmu-miR-219a-5p): 0.34
SALvHet Z Score (mmu-miR-223-3p): −0.01
SALvHet Z Score (mmu-miR-224-5p): −0.27
SALvHet Z Score (mmu-miR-296-3p): 0.05
Sal Direction Opposite ISRIB? (mmu-miR-296-3p): yes
SALvHet Z Score (mmu-miR-298-5p): 0.16
Sal Direction Opposite ISRIB? (mmu-miR-298-5p): yes
SALvHet Z Score (mmu-miR-299a-3p): 0.39
SALvHet Z Score (mmu-miR-301a-3p): 0.35
SALvHet Z Score (mmu-miR-301b-3p): 0.01
SALvHet Z Score (mmu-miR-320-3p): −0.21
SALvHet Z Score (mmu-miR-322-5p): −0.07
SALvHet Z Score (mmu-miR-324-3p): 0.16
SALvHet Z Score (mmu-miR-335-Sp): −0.35
SALvHet Z Score (mmu-miR-340-5p): 0.31
SALvHet Z Score (mmu-miR-344-3p): 0.44
Sal Direction Opposite ISRIB? (mmu-miR-344-3p): yes
SALvHet Z Score (mmu-miR-350-3p): 0.08
SALvHet Z Score (mmu-miR-361-5p): −0.15
SALvHet Z Score (mmu-miR-362-3p): 0.47
Sal Direction Opposite ISRIB? (mmu-miR-362-3p): yes
SALvHet Z Score (mmu-miR-362-5p): −0.10
SALvHet Z Score (mmu-miR-378a-3p): −0.12
SALvHet Z Score (mmu-miR-450a-5p): 0.09
SALvHet Z Score (mmu-miR-450b-3p): −0.29
SALvHet Z Score (mmu-miR-451a): 0.38
SALvHet Z Score (mmu-miR-483-5p): −1.22
SALvHet Z Score (mmu-miR-500-3p): 0.10
SALvHet Z Score (mmu-miR-503-3p): −0.70
SALvHet Z Score (mmu-miR-532-5p): −0.06
SALvHet Z Score (mmu-miR-542-3p): 0.33
SALvHet Z Score (mmu-miR-542-5p): 0.39
Sal Direction Opposite ISRIB? (mmu-miR-542-5p): yes
SALvHet Z Score (mmu-miR-582-3p): −0.45
SALvHet Z Score (mmu-miR-652-3p): 0.34
SALvHet Z Score (mmu-miR-671-5p): 0.26
Sal Direction Opposite ISRIB? (mmu-miR-671-5p): yes
SALvHet Z Score (mmu-miR-700-3p): 0.16
SALvHet Z Score (mmu-miR-708-5p): 0.58
SALvHet Z Score (mmu-miR-872-5p): 0.19
SALvHet Z Score (mmu-miR-1291): −0.06
SALvHet Z Score (mmu-miR-1843a-5p): 0.07
SALvHet Z Score (mmu-miR-3102-3p): 0.35
SALvHet Z Score (mmu-miR-3535): −0.66
SALvHet Z Score (mmu-miR-5121): 0.22
Sal Direction Opposite ISRIB? (mmu-miR-5121): yes
Sal Direction Opposite ISRIB? (mmu-miR-30h-5p): yes
SALvHet Z Score (mmu-miR-30d-5p): −0.11
SALvHet Z Score (mmu-miR-344d-3p): −1.00
